In patent US20230226062A1, “HETEROCYCLIC COMPOUNDS AS IMMUNOMODULATORS” (Incyte Corporation, priority 2016, published 2023):

molecular target: T1, PD-1/PD-L1 (Homo sapiens, UniProt Q9NZQ7); assay: PD-1/PD-L1 Homogeneous Time-Resolved Fluorescence (HTRF) binding assay; settings: recombinant human PD-L1 (19-238)-His 10 nM, human PD-1 (25-167)-Fc 3 nM, 25° C., PBS pH 7.4
T1 construct: Recombinant human PD-L1 protein (19-238) with a His-tag at the C-terminus; purchased AcroBiosystems PD1-H5229 (PD-L1); PD1-H5257 (PD-1)
T1 sequence (Q9NZQ7 19-238): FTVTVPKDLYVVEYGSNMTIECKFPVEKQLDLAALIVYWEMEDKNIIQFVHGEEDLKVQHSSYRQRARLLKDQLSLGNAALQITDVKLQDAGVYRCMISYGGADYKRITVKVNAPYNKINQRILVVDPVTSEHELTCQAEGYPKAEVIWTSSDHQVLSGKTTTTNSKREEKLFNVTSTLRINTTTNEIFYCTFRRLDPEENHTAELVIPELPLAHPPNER
Protocol: Example A. PD-1/PD-L1 Homogeneous Time-Resolved Fluorescence (HTRF) Binding Assay
The assays were conducted in a standard black 384-well polystyrene plate with a final volume of 20 μL. Inhibitors were first serially diluted in DMSO and then added to the plate wells before the addition of other reaction components. The final concentration of DMSO in the assay was 1%. The assays were carried out at 25° C. in the PBS buffer (pH 7.4) with 0.05% Tween-20 and 0.1% BSA. Recombinant human PD-L1 protein (19-238) with a His-tag at the C-terminus was purchased from AcroBiosystems (PD1-H5229). Recombinant human PD-1 protein (25-167) with Fc tag at the C-terminus was also purchased from AcroBiosystems (PD1-H5257). PD-L1 and PD-1 proteins were diluted in the assay buffer and 10 μL was added to the plate well. Plates were centrifuged and proteins were preincubated with inhibitors for 40 minutes. The incubation was followed by the addition of 10 μL of HTRF detection buffer supplemented with Europium cryptate-labeled anti-human IgG (PerkinElmer-AD0212) specific for Fc and anti-His antibody conjugated to SureLight®-Allophycocyanin (APC, PerkinElmer-AD0059H). After centrifugation, the plate was incubated at 25° C. for 60 min. before reading on a PHERAstar FS plate reader (665 nm/620 nm ratio). Final concentrations in the assay were—3 nM PD1, 10 nM PD-L1, 1 nM europium anti-human IgG and 20 nM anti-His-Allophycocyanin. IC50 determination was performed by fitting the curve of percent control activity versus the log of the inhibitor concentration using the GraphPad Prism 5.0 software.

Row | IC50 | SMILES
1 | 100 to 1000 nM | Cc1c(Nc2ccc3c(c2)CCN(C(CO)CO)C3)cccc1-c1ccccc1 [Example 18, 2-(6-(2-methylbiphenyl-3-ylamino)-3,4-dihydroisoquinolin-2(1H)-yl)propane-1,3-diol]
2 | 100 to 1000 nM | Cc1c(NC(=O)c2cccn3c(CN4CCCC[C@H]4C(=O)O)cnc23)cccc1-c1ccccc1 [Example 11, (S)-1-((8-(2-methylbiphenyl-3-ylcarbamoyl)imidazo[1,2-a]pyridin-3-yl)methyl)piperidine-2-carboxylic acid]
3 | 100 to 1000 nM | Cc1c(-c2ccccc2)cccc1N1CCc2cc(CNCCO)ccc2C1 [Example 14, 2-((2-(2-methylbiphenyl-3-yl)-1,2,3,4-tetrahydroisoquinolin-6-yl)methylamino)ethanol]
4 | 100 to 1000 nM | Cc1c(C2=CCC(N3CCCC3)CC2)cccc1-c1ccccc1 (stereo not drawn) [Example 32, 1-(4-(2-methylbiphenyl-3-yl)cyclohex-3-enyl)pyrrolidine]
5 | 100 to 1000 nM | N#Cc1c(-c2ccccc2)csc1Nc1nccc2cc(CNCCO)cnc12 [Example 34, 2-[(3-{[(2-hydroxyethyl)amino]methyl}-1,7-naphthyridin-8-yl)amino]-4-phenylthiophene-3-carbonitrile]
6 | 100 to 1000 nM | O=C(Nc1ccc2cnc(-c3ccccc3)cc2c1Cl)c1ccc(CNCCO)cn1 [Example 12, N-(5-chloro-3-phenylisoquinolin-6-yl)-5-((2-hydroxyethylamino)methyl) picolinamide]
7 | 100 to 1000 nM | O[C@H]1CC[C@@H](NCc2ccc(N3CCCC(c4ccccc4)C3)cn2)CC1 (stereo partly drawn) [Example 22, Cis-4-((5-(3-phenylpiperidin-1-yl)pyridin-2-yl)methylamino)cyclohexanol]
8 | 10 to 100 nM | Cc1c(-c2ccccc2)cccc1-c1ccc(CNCCO)cc1 [Example 7, 2-{[(2′-methyl-1,1′:3′,1″-terphenyl-4-yl)methyl]amino}ethanol]
9 | 10 to 100 nM | COc1cccc(-c2cccc(Nc3nccn4c(CNCCO)cnc34)c2C)c1F [Example 9, 2-(((8-((2′-fluoro-3′-methoxy-2-methyl-[1,1′-biphenyl]-3-yl)amino)imidazo[1,2-a]pyrazin-3-yl)methyl)amino)ethan-1-ol]
10 | 10 to 100 nM | Cc1c(-c2ccccc2)cccc1-c1ccc2c(c1)CNC2 [Example 5, 5-(2-methylbiphenyl-3-yl)isoindoline]
11 | 10 to 100 nM | Cc1c(Oc2ncnc3c(CNCCO)csc23)cccc1-c1ccccc1 [Example 1, 2-((4-(2-methylbiphenyl-3-yloxy)thieno[3,2-d]pyrimidin-7-yl)methylamino)ethanol]
12 | 100 to 1000 nM | CCN(C)CC(=O)N1Cc2nc(-c3cccc(-c4cccc(N5CCC6NCCC6C5)c4C)c3C)sc2C1 (stereo not drawn) [Example 37, 1-(2-(2,2′-dimethyl-3′-(tetrahydro-1H-pyrrolo[3,2-c]pyridin-5(6H,7H,7aH)-yl)biphenyl-3-yl)-4H-pyrrolo[3,4-d]thiazol-5(6H)-yl)-2-(ethyl(methyl)amino)ethanone]
13 | 100 to 1000 nM | Cc1cc(CN2CCCC[C@H]2C(=O)O)ccc1OC1CCc2c(-c3ccccc3)cccc21 (stereo partly drawn) [Example 10, (2S)-1-(3-methyl-4-(4-phenyl-2,3-dihydro-1H-inden-1-yloxy)benzyl)piperidine-2-carboxylic acid]
14 | 100 to 1000 nM | Cc1c(Nc2nsc3nccnc23)cccc1-c1ccccc1 [Example 25, N-(2-methylbiphenyl-3-yl)isothiazolo[4,5-b]pyrazin-3-amine]

Continued, compound first:

Row | SMILES | IC50
15 | Cc1c(-c2ccccc2)ccnc1-c1ccc(CN)cc1 [Example 21, (4-(3-methyl-4-phenylpyridin-2-yl)phenyl)methanamine] | 100 to 1000 nM
16 | Cc1c(-c2ccccc2)cccc1N1CCC2(CCCC(=O)N2)CC1 [Example 30, 9-(2-methylbiphenyl-3-yl)-1,9-diazaspiro[5.5]undecan-2-one] | 100 to 1000 nM
17 | Cc1c(-c2ccccc2)cccc1N1Cc2ccc(CNCCO)cc2C1 [Example 19, 2-((2-(2-methylbiphenyl-3-yl)isoindolin-5-yl)methylamino)ethanol] | 100 to 1000 nM
18 | OCCNCc1ccc(CN2CCc3c(-c4ccccc4)cccc32)c(Cl)c1 [Example 40, 2-({3-chloro-4-[(4-phenyl-2,3-dihydro-1H-indol-1-yl)methyl]benzyl}amino)ethanol] | 100 to 1000 nM
19 | Cc1c(NC(=O)N2CCCC(N)C2)cccc1-c1ccccc1 (stereo not drawn) [Example 33, 3-amino-N-(2-methylbiphenyl-3-yl)piperidine-1-carboxamide] | 1000 to 2000 nM
20 | Cc1c(-c2ccccc2)cccc1-c1ccc2nc(CN3CCCC[C@H]3C(=O)O)cc(C)c2c1 [Example 4, (S)-1-((4-methyl-6-(2-methylbiphenyl-3-yl)quinolin-2-yl)methyl)piperidine-2-carboxylic acid] | 10 to 100 nM
21 | Cc1c(-c2nc3c(s2)CN(C(=O)CN(C)C)C3)cccc1-c1cccc(-c2nc3c(s2)CN(C(=O)CN2CC[C@@H](O)C2)C3)c1C [Example 35, (R)-2-(dimethylamino)-1-(2-(3′-(5-(2-(3-hydroxypyrrolidin-1-yl)acetyl)-5,6-dihydro-4H-pyrrolo[3,4-d]thiazol-2-yl)-2,2′-dimethylbiphenyl-3-yl)-4H-pyrrolo[3,4-d]thiazol-5(6H)-yl)ethanone] | ≤ 10 nM
22 | COc1cccc(-c2cccc(Nc3ncccc3C(=O)NCCNCCO)c2C)c1F [Example 39, 2-(2′-fluoro-3′-methoxy-2-methylbiphenyl-3-ylamino)-N-(2-(2-hydroxyethylamino)ethyl)nicotinamide] | 100 to 1000 nM
23 | Cc1c(-c2ccccc2)cccc1-c1ccc2c(c1)CCC(CN(C)C)O2 (stereo not drawn) [Example 16, N,N-dimethyl-1-(6-(2-methylbiphenyl-3-yl)chroman-2-yl)methanamine] | 100 to 1000 nM
24 | OCC1(CNC2CCN(c3cccc(NCc4ccccc4)c3Cl)CC2)CCC1 [Example 24, (1-((1-(3-(benzylamino)-2-chlorophenyl)piperidin-4-ylamino)methyl)cyclobutyl)methanol] | 100 to 1000 nM
25 | NCc1ccc(-c2cccc(-c3ccccc3)c2Cl)cn1 [Example 6, (5-(2-chlorobiphenyl-3-yl)pyridin-2-yl)methanamine] | 10 to 100 nM
26 | Cc1c(-c2ccccc2)cccc1N1CC[C@H](CN)C1 [Example 29, (R)-(1-(2-methylbiphenyl-3-yl)pyrrolidin-3-yl)methanamine] | 1000 to 2000 nM
27 | OCC1(CNC2CCN(c3cccc(Nc4ccccc4)c3Cl)CC2)CCC1 [Example 23, (1-((1-(2-chloro-3-(phenylamino)phenyl)piperidin-4-ylamino)methyl)cyclobutyl)methanol] | 1000 to 2000 nM
28 | Cc1c(/C=C/c2ccc(CN3CCCC[C@@H]3C(=O)O)cn2)cccc1-c1ccccc1 [Example 8, (R,E)-1-((6-(2-(2-methyl-[1,1′-biphenyl]-3-yl)vinyl)pyridin-3-yl)methyl)piperidine-2-carboxylic acid] | 10 to 100 nM
29 | Cc1c(-c2ccccc2)cccc1-c1ccc2c(c1)CCNC2 [Example 13, 6-(2-methylbiphenyl-3-yl)-1,2,3,4-tetrahydroisoquinoline] | 10 to 100 nM
30 | Cc1c(-c2ccccc2)cccc1-c1cnn(C[C@@H]2CCCN2)c1 [Example 2, 4-(2-methylbiphenyl-3-yl)-1-[(2S)-pyrrolidin-2-ylmethyl]-1H-pyrazole] | 10 to 100 nM
